Test results published in the NIST ThermoML archive (doi:10.1021/je101012n).

Assay: mn = molality of the nth substance listed, in mol/kg
Conditions: 101 kPa, Liquid, Alternating current cell with electrodes

O=[N+]([O-])[O-].O=[N+]([O-])[O-].[Mn+2] [manganese nitrate] + O
electrical conductivity [S/m]
Conditions | 278.1 K | 283.1 K | 298.15 K | 308.15 K | 318.15 K | 343.15 K | 363.15 K
m1 = 0.000917 | 0.05151 | 0.05774 | 0.07688 | 0.08959 | 0.1015 | 0.1307 | 0.155
m1 = 0.01047 | 0.1786 | 0.2033 | 0.282 | 0.3382 | 0.3934 | 0.538 | 0.6651
m1 = 0.086 | 1.04 | 1.179 | 1.63 | 1.958 | 2.295 | 3.125 | 3.692
m1 = 0.8521 | 7.064 | 7.973 | 10.69 | 12.54 | 14.41 | 19.41 | –

O=[N+]([O-])[O-].O=[N+]([O-])[O-].[Zn+2] [nitric acid, zinc salt] + O
electrical conductivity [S/m]
Conditions | 278.15 K | 283.15 K | 298.15 K | 308.15 K | 318.15 K | 343.15 K | 363.15 K
m1 = 8.7e-05 | 0.001368 | 0.001579 | 0.002248 | 0.002744 | 0.003188 | 0.004549 | 0.00575
m1 = 0.00127 | 0.01814 | 0.02081 | 0.02942 | 0.03606 | 0.04205 | 0.06014 | 0.07615
m1 = 0.00874 | 0.1162 | 0.1334 | 0.1891 | 0.2299 | 0.2687 | 0.383 | 0.4824
m1 = 0.1275 | 1.391 | 1.592 | 2.217 | 2.658 | 3.118 | 4.402 | 5.442
m1 = 0.3325 | 3.111 | 3.653 | 4.931 | 5.906 | 6.986 | 9.937 | 11.83

O=C([O-])O.[K+] [potassium bicarbonate] + O
electrical conductivity [S/m]
Conditions | 278.15 K | 283.15 K | 298.15 K | 308.15 K | 318.15 K | 343.15 K | 363.15 K
m1 = 0.001 | 0.007403 | 0.00834 | 0.01179 | 0.01416 | 0.01673 | 0.02401 | 0.03038
m1 = 0.00992 | 0.0687 | 0.07877 | 0.1107 | 0.1335 | 0.1573 | 0.2237 | 0.2794
m1 = 0.09998 | 0.6141 | 0.7003 | 0.9852 | 1.176 | 1.383 | 1.963 | 2.446
m1 = 0.5001 | 2.664 | 3.031 | 4.206 | 5.066 | 5.94 | 8.391 | 10.49
m1 = 0.9999 | 4.748 | 5.358 | 7.365 | 8.802 | 10.31 | 14.3 | 17.93

[Br-].[K+] [potassium bromide] + O
electrical conductivity [S/m]
Conditions | 278.15 K | 283.15 K | 298.15 K | 308.15 K | 318.15 K | 343.15 K | 363.15 K
m1 = 9.9e-05 | 0.0009344 | 0.001066 | 0.001469 | 0.00175 | 0.002072 | 0.002896 | 0.003522
m1 = 0.000975 | 0.009114 | 0.01037 | 0.01441 | 0.01716 | 0.02007 | 0.02802 | 0.0343
m1 = 0.00987 | 0.08994 | 0.1022 | 0.1417 | 0.1689 | 0.1974 | 0.2761 | 0.3376
m1 = 0.09755 | 0.8252 | 0.9355 | 1.29 | 1.535 | 1.787 | 2.491 | 2.952
m1 = 1.21 | 8.409 | 9.363 | 12.45 | 14.54 | 16.72 | 22.46 | 26.28

O=C([O-])[O-].[K+].[K+] [potassium carbonate] + O
electrical conductivity [S/m]
Conditions | 278.15 K | 283.15 K | 298.15 K | 308.15 K | 318.15 K | 343.15 K | 363.15 K
m1 = 0.00132 | 0.02129 | 0.02471 | 0.03642 | 0.0439 | 0.05331 | 0.07921 | 0.09755
m1 = 0.01048 | 0.1568 | 0.1809 | 0.2575 | 0.3146 | 0.3758 | 0.5522 | 0.6987
m1 = 0.1319 | 1.589 | 1.815 | 2.542 | 3.054 | 3.59 | 5.098 | 6.345
m1 = 0.3525 | 3.8 | 4.305 | 5.942 | 7.115 | 8.319 | 11.6 | 14.31

[Cl-].[K+] [potassium chloride] + O
electrical conductivity [S/m]
Conditions | 278.15 K | 283.15 K | 298.15 K | 308.15 K | 318.15 K | 343.15 K | 363.15 K
m1 = 0.0001 | 0.0009464 | 0.001074 | 0.001487 | 0.001786 | 0.002105 | 0.002969 | 0.003716
m1 = 0.001 | 0.009198 | 0.0105 | 0.01471 | 0.01773 | 0.0207 | 0.02897 | 0.03587
m1 = 0.01 | 0.0891 | 0.1014 | 0.1408 | 0.1688 | 0.1977 | 0.2761 | 0.3426
m1 = 0.1 | 0.8184 | 0.9292 | 1.283 | 1.532 | 1.788 | 2.471 | 3.086
m1 = 0.5 | 3.875 | 4.375 | 5.92 | 6.981 | 8.107 | 11.23 | 13.48
m1 = 1 | 7.203 | 8.084 | 10.86 | 12.8 | 14.77 | 20.25 | 24.58

[F-].[K+] [potassium fluoride] + O
electrical conductivity [S/m]
Conditions | 278.15 K | 283.15 K | 298.15 K | 308.15 K | 318.15 K | 343.15 K | 363.15 K
m1 = 0.000325 | 0.002576 | 0.002933 | 0.004125 | 0.005036 | 0.005965 | 0.008448 | 0.01046
m1 = 0.00109 | 0.008262 | 0.009509 | 0.01357 | 0.01642 | 0.01929 | 0.02734 | 0.03426
m1 = 0.035 | 0.2417 | 0.2829 | 0.3939 | 0.4778 | 0.5576 | 0.7954 | 0.9964
m1 = 0.11 | 0.7375 | 0.8455 | 1.195 | 1.445 | 1.692 | 2.409 | 3.004
m1 = 0.52 | 3.023 | 3.435 | 4.804 | 5.771 | 6.801 | 9.683 | 11.86
m1 = 0.99 | 5.272 | 6.034 | 8.275 | 9.907 | 11.75 | 16.85 | 20.13

O=[N+]([O-])[O-].[K+] [potassium nitrate] + O
electrical conductivity [S/m]
Conditions | 278.15 K | 283.15 K | 298.15 K | 308.15 K | 318.15 K | 343.15 K | 363.15 K
m1 = 0.000103 | 0.0009389 | 0.001073 | 0.001486 | 0.001798 | 0.002048 | 0.00283 | 0.00348
m1 = 0.000997 | 0.008901 | 0.01015 | 0.01411 | 0.01701 | 0.01956 | 0.02717 | 0.0338
m1 = 0.01026 | 0.0874 | 0.09971 | 0.1385 | 0.1664 | 0.1919 | 0.2666 | 0.3287
m1 = 0.09972 | 0.7601 | 0.8658 | 1.201 | 1.44 | 1.669 | 2.342 | 2.875
m1 = 0.4093 | 2.815 | 3.211 | 4.407 | 5.264 | 6.162 | 8.59 | 10.45
m1 = 0.7941 | 4.806 | 5.474 | 7.428 | 8.831 | 10.38 | 14.63 | 16.97
